Results taken from patent publication US10022342B2, “Methods and compositions for treating multiple myeloma” (Ohio State Innovation Foundation, priority 2015, dated 2018).

Experiments:
[1] = test system: U266, RPMI, and MM1S cells; assay: Apoptosis (annexin) and necrosis (propidium iodide) by HDAC inhibitors, FIG. 15; assay type: cell-based, human
Method: Apoptosis was measured by annexin staining while cell necrosis was measured by propidium iodide staining.
CD44 surface expression was analyzed by staining cells with CD44-FITC antibody (BD Biosciences) for 30 min. in the dark, at room temperature. Apoptosis was measured by Annexin V-FITC and Propidium Iodide (PI) (Clontech) staining for 15 min. in the dark, at room temperature and data immediately acquired on a Beckman Coulter FC500 (Beckman Coulter) machine. Analysis was conducted using the FlowJo Software vX.0.7 (Tree Star Inc.). For the multiparametric analysis, the bone marrow samples were stained with CD38-PE (347687; BD Bioscience), CD138-APC (347193; BD Bioscience), CD45-ECD (A07784; Beckman Coulter), CD44-FITC (BD Bioscience) and AnnexinV-FITC (Clontech) for 30 minutes, washed with PBS and immediately analyzed with Gallios cytometer (Beckman Coulter).

MM.1S GFP/Luc+ cells = assay: NOD-SCID mice engrafted i.v. with MM.1S GFP/Luc+ cells, oral AR-42 + pomalidomide; assay type: in vivo; details: 25 mg/kg each
Text: To investigate whether the oral combination treatment of AR-42 and pomalidomide improves the survival of mice engrafted with MM cells, 40 NOD-SCID mice were engrafted with 10×10^6 MM.1S GFP/Luc+ cells by intravenous injection (IV). Ten days later, mice with the same tumor burden (as calculated by luminescence) (FIG. 14C) were randomly divided into 4 treatment groups (10 mice per group): AR-42 alone, pomalidomide alone, AR-42+pomalidomide, and vehicle control (Ctrl, 8% DMSO in PBS). Mice were treated by oral administration (gavage) daily with pomalidomide (25 mg/kg) or Ctrl, and three times a week (Mon-Tues-Fri) with AR-42 (25 mg/kg) or Ctrl, until elimination criteria, including paralysis, extreme weight loss and dehydration, were reached.

MM cells = assay: IC50 concentrations of HDAC inhibitors in MM cells; assay type: cell-based; details: Homo sapiens

Question: `O=C(CCCCCCC(=O)Nc1ccccc1)NO` [SAHA, suberoylanilide hydroxamic acid, reference compound] was tested. Which “apoptosis (annexin staining)” value ([1]; 24 and 48 hours, 0.25, 0.5, and 1 μM) did it give?
Answer: limited impact on apoptosis

Question: For `Nc1cccc2c1C(=O)N(C1CCC(=O)NC1=O)C2=O` (stereo not shown) [pomalidomide, reference compound], which median survival (MM.1S GFP/Luc+ cells) is on record?
Answer: 42 days

Question: Which results are given for `Cc1[nH]c2ccccc2c1CCNCc1ccc(/C=C/C(=O)NO)cc1` [LBH, reference compound]?
Answer: IC50 (MM cells): 10 nM; dose response curve ([1]; data not shown): No dose response curve could be obtained
